Entries after “also recorded” stand apart in the source; their conditions may differ.
Experiments:
B16-F10 melanoma cells = test: Tumor growth and initiation in vivo, B16-F10; design: species or system mice; settings: for Number of animals with tumors: B16-F10 cells, 8 mice per group, assessed over 90 days
Text: (§1) B16-F10 (A) or Ret (B) cells were co-injected with Matrigel into syngeneic mice. […] Numbers indicate the number of animals with a tumor in each group. Bar graphs show the mean tumor volume in each group at the day when the first animal had reached the legal tumor size limit. Kaplan-Meier curves show the percentage of tumor-free animals in percent as a measure for tumor initiation.
(§2) Cells were harvested using trypsin/EDTA and washed in PBS. The indicated numbers of living melanoma cells were subcutaneously injected into the flank of syngeneic mice in 100 μl PBS. For co-injection experiments, the indicated number of living cells was resuspended in 100 μl Matrigel HC (10 mg/ml, #354262, Corning Inc.), and subcutaneously injected into the flank. Tumor volume was calculated using the formula 4/3π (d1/2×d2/2×d3/2), where d1−d3 represents the diameter of the tumor in three dimensions. […] All animal experiments were approved by the local authorities, and performed according to the German legal requirements. Tumor initiating cell (TIC) frequency and p-values were calculated using ELDA software.
(§3) To investigate the anti-tumor properties of the selected Id1/Id3-inhibiting compounds, groups of experimental mice (8 per group) were injected subcutaneously with B16-F10 or Ret melanoma cells. […] Melanoma initiation and growth was assessed over a period of 90 days.

Ret melanoma cells = test: Tumor growth and initiation in vivo, Ret; design: species or system mice
Text: as §1, §2, §3

Id3 [1] = test: Compound screen: BMP4-induced Id3 expression, Western blot; assay type: cell-based, murine; settings: for Inhibitory effect on Id3 protein expression: B16-F10 and Ret cells, BMP4 10 ng/ml and compound simultaneously, 24 h, rated relative to CBD
Protocol: (§4) To screen compounds with an inhibitory effect on Id1 and Id3 expression, cells were simultaneously stimulated with BMP4 (10 ng/ml, 315-27, Peprotech) and substances at the indicated concentrations for 24 h. DMSO served as a solvent control. Effects on Id1 and Id3 expression levels were analysed by Western blotting.
(§5) Western blot analysis was performed using standard methods. The following antibodies were used for protein detection: Id1 (195-14, CalBioreagents), Id3 (17-3, CalBioreagents), β-actin (AC-15, Sigma Aldrich), Vinculin (VIN-11-5, Sigma Aldrich). Protein bands were detected using HRP conjugated secondary antibodies (P0447, P0448, Agilent Technologies) and enhanced chemiluminescence (32106, Thermo Fisher Scientific).
(§6) B16-F10 and Ret melanoma cells were treated with BMP4 to induce Id1 and Id3 expression, and simultaneously treated with each of the compounds individually for a 24 h period.

B16-F10 and Ret cells [2] = test: 3D Matrigel assay; assay type: cell-based, murine
Protocol: X8166 inhibits melanoma cell growth in 3D Matrigel. B16-F10 (A) or Ret (B) control or CRISPR/Cas9 Id1/Id3 cells were seeded in 3D Matrigel (10 mg/ml) and grown for six days before analysis. B16-F10 or Ret cells were treated daily with DMSO or X8166 (7.5 μM). The number of colonies at six positions of each well of a 48-well plate were counted in each z-level (5-10 z-levels were imaged per position).
Cells (2×10^3) were mixed with Matrigel to obtain 150 μl of a cell/Matrigel (10 mg/ml, #354262, Corning Inc.) solution, which was seeded into a well of a 48-well plate. The gel was allowed to solidify at 37° C. for 30 min and was subsequently overlaid with 500 μl complete growth medium. After six days of culture, images were captured using a Leica DMI6000 B microscope at six different x/y positions in every well, and a minimum of five horizontal layers (z levels) at each position, in order to get every cell in focus for image analysis. Image analysis was performed using Fiji software as follows: First, images were transformed into 8-bit files (pixel values from 0 (black) to 255 (white)). The scale was set to distance=0, known=0, pixel=1, and unit=pixel global. Outlines of each colony in focus in every image were detected using the integrated semi-automatic magic wand tool. Once outlines were matching the morphology of the colony were obtained, the colony was filled white (pixel value 255) using the fill function. Thresholding of pixel values (threshold=255) allowed black (background) and white (colonies) images of the filled colonies to be obtained. The “Analyze particles” function was applied to measure the area and perimeter of colonies with a minimum pixel size of 1500. An invasive index was calculated as follows: Invasive index=(perimeter)^2/area, resulting in a unitless measure of invasiveness.

[3] = system: mouse embryonic fibroblasts (MEFs); test: Proliferation/cytotoxicity in mouse embryonic fibroblasts, 2D culture; assay type: cell-based
B16-F10 and Ret cells [4] = test: Proliferation of melanoma cells in 2D culture; assay type: cell-based, murine
[5] = Toxicity observed in treated tumor-bearing mice; assay type: in vivo; settings: daily intraperitoneal injections; for Toxicity in the treated mice: 14 days
Protocol: as §2
In contrast, daily intraperitoneal injections of CBD led to the death of two mice in the experiment with Ret cell-derived tumors (cause of death unknown).

Id1 [6] = test: Compound screen: BMP4-induced Id1 expression, Western blot; assay type: cell-based, murine; settings: for Inhibitory effect on Id1 protein expression: B16-F10 and Ret cells, BMP4 10 ng/ml and compound simultaneously, 24 h, rated relative to CBD
Protocol: as §4, §5, §6

Id3 [7] = test: Id3 expression in HUVECs, Western blot; assay type: cell-based, Human; settings: proliferating HUVECs; 24 hours (FIG. 10A)
Protocol: (§7) Human umbilical vein endothelial cells (HUVECs) and lymphatic endothelial cells (LECs) were cultivated in EBM™-2 Endothelial Cell Growth Basal Medium supplemented with EGM™-2 MV Microvascular Endothelial Cell Growth Medium-2 SingleQuots™ Kit (both Lonza, catalogue numbers CC-3156 and CC4176, respectively), hereafter referred to as endothelial cell growth medium. HUVECs and LECs were cultivated in the presence of the indicated concentrations of X6632, or with DMSO as a solvent control. After 24 hours, cells were harvested. Lysates were western blotted and probed with antibodies against Id1 and Id3. Western blots probed with vinculin antibodies served as loading controls.
as §5
(§8) The effect of X6632 on Id1 and Id3 expression in cultivated proliferating human umbilical vein endothelial cells (HUVECs) was investigated. […] LDN-193189, an antagonist of BMP receptor isotypes ALK2 and ALK3, served as a positive control reference for inhibition of Id1 and Id3 expression.

Id1 [8] = test: Id1 expression in HUVECs, Western blot; assay type: cell-based, Human; settings: proliferating HUVECs; 24 hours (FIG. 10A)
Protocol: as §7, §5, §8

Id1 [9] = settings: cited from earlier work
CB2 = CB2 (Homo sapiens, UniProt P34972); settings: cited from earlier work
CB2, sequence (P34972 whole entry, species assumed): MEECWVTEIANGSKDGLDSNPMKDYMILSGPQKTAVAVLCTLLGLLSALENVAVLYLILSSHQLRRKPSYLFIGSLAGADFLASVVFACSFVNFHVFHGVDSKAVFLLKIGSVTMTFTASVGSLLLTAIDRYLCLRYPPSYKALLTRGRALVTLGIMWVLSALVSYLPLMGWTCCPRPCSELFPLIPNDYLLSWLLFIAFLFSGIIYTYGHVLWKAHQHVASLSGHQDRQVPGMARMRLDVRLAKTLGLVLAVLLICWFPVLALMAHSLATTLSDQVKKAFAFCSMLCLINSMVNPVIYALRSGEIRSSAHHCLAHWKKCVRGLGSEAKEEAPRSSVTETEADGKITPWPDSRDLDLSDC

glioma = glioma model; cited from earlier work
mammary carcinoma = settings: orthotropic mammary carcinoma model; cited from earlier work
[10] = compound 3.3 μM, BMP4, 24 h (FIG. 9B)

CCCCn1cc(C(=O)Cc2ccccc2)c2ccccc21 [X8166]
Melanoma growth and initiation (B16-F10 melanoma cells; B16-F10 cells co-injected with Matrigel, syngeneic mice, daily i.p. first 14 days, compared to DMSO): significantly inhibit; also recorded: potent inhibitors
Number of animals with tumors (B16-F10 melanoma cells): none
Tumor growth and initiation compared to CBD (B16-F10 melanoma cells; B16-F10 experiment, daily i.p. first 14 days): significantly more
Melanoma growth and initiation (Ret melanoma cells; Ret cells co-injected with Matrigel, syngeneic mice, daily i.p. first 14 days, compared to DMSO): significantly inhibit; also recorded: potent inhibitors
Number of mice that did not develop any tumors (Ret melanoma cells; Ret cells, 8 mice per group, assessed over 90 days): 2 mice
Tumor growth and initiation compared to CBD (Ret melanoma cells; Ret experiment, daily i.p. first 14 days): significantly more
Inhibitory effect on Id3 protein expression (Id3 [1]): strongest inhibitory activities
Growth of melanoma cells in 3D Matrigel (B16-F10 and Ret cells [2]; Matrigel 10 mg/ml, six days, treated daily, X8166 7.5 μM): significantly impaired; also recorded: inhibits
Proliferation / cytotoxicity, non-transformed MEFs [3]: modest inhibitory effect; also recorded: well tolerated; also recorded: superior; also recorded: less cytotoxic
Proliferation / cytotoxicity, melanoma cells (B16-F10 and Ret cells [4]): modest inhibitory effect; also recorded: less cytotoxic
Toxicity in the treated mice [5]: no evidence for toxicity was observed; also recorded: well tolerated
Inhibitory effect on Id1 protein expression (Id1 [6]): strongest inhibitory activities

Cc1ccc(Cn2cc(CC(=O)Nc3ccc(C(F)(F)F)cc3)c3ccccc32)cc1 [X8706]
Inhibitory effect on Id3 protein expression (Id3 [1]): strongest inhibitory activities
Inhibitory effect on Id1 protein expression (Id1 [6]): strongest inhibitory activities

CCCCCCCC(C)(C)c1cc(O)c2cc(Cc3ccccc3O)c(=O)oc2c1 [X81]
Inhibitory effect on Id3 protein expression (Id3 [1]): strongest inhibitory activities
Inhibitory effect on Id1 protein expression (Id1 [6]): strongest inhibitory activities

Cc1cc(=O)oc2cc(O)ccc12 [4-methylumbelliferone, reference compound]
Id3 protein expression (Id3 [7]): did not reduce
Id1 protein expression (Id1 [8]): did not reduce

O=C(Nc1nn(Cc2ccc(C(F)(F)F)cc2)c2c(C(F)(F)F)cccc12)c1ccccc1 [X8035]
Inhibitory effect on Id3 protein expression (Id3 [1]): strongest inhibitory activities
Inhibitory effect on Id1 protein expression (Id1 [6]): strongest inhibitory activities

CCCCCCC(C)(C)c1cc(O)c2cc(Cc3ccccc3O)c(=O)oc2c1 [X106]
Inhibitory effect on Id3 protein expression (Id3 [1]): strongest inhibitory activities
Inhibitory effect on Id1 protein expression (Id1 [6]): strongest inhibitory activities

Cc1ccc(CN(C(=O)c2ccccc2)c2nn(Cc3ccc(C)cc3)c3c(C(F)(F)F)cccc23)cc1 [X8766]
Inhibitory effect on Id3 protein expression (Id3 [1]): strongest inhibitory activities
Inhibitory effect on Id1 protein expression (Id1 [6]): strongest inhibitory activities

C=C(C)[C@@H]1CCC(C)=C[C@H]1c1c(O)cc(CCCCC)cc1O [CBD, Cannabidiol, reference compound]
Id1 expression at the transcriptional level (Id1 [9]): inhibits
Number of animals with tumors (B16-F10 melanoma cells): seven out of eight
Affinity for CB2 (CB2): low affinity
Inhibition of Id3 expression (Id3 [1]; [10]): does not inhibit
3D assays could not be performed with daily application, reason (B16-F10 and Ret cells [2]; daily application in 3D Matrigel): cytotoxicity
Proliferation / cytotoxicity, non-transformed MEFs [3]: strongly inhibited; also recorded: more toxic
Id1 expression (glioma): inhibited
Invasion in vivo (glioma): decreased invasion
Survival of tumor-bearing mice (glioma): prolonged survival
Proliferation / cytotoxicity, melanoma cells (B16-F10 and Ret cells [4]): strongly inhibited; also recorded: more cytotoxic
Toxicity in the treated mice [5]: toxicity-related injury to their intestinal organs
Death of mice ([5]; experiment with Ret cell-derived tumors, cause of death unknown): two
Inhibition of Id1 expression (Id1 [6]; [10]): does not inhibit
Levels of Id1 in tumor tissue (mammary carcinoma): reduced levels
Primary tumor growth and lung metastasis (mammary carcinoma): inhibition

Reference: patent publication US20220259172A1, “CHEMICAL INHIBITORS OF ID PROTEINS FOR THE TREATMENT OF CANCER AND OTHER DISEASES” (Universität Heidelberg, priority 2019, published 2022)
